Article PMC7792944, “Pharmacological Characterization of µ-Opioid Receptor Agonists with Biased G Protein or β-Arrestin Signaling, and Computational Study of Conformational Changes during Receptor Activation” (Molecules, 2020)
“And” between values parts separate entries of the source, which are not always exact repeats. Identical values can stand only once. Bridge positions count the residues as written; N and C are the ends. Square brackets hold non-standard residues; d marks the D form. Ends that are not written are not given here. Peptide text beside a SMILES is read from it. Phe(4-CF3) = N[C@@H](Cc1ccc(C(F)(F)F)cc1)C(=O)O; Dmt = Cc1cc(O)cc(C)c1C[C@H](N)C(=O)O

Legend:
MOP [1] = system: MOP; parameters: method as in PMID 31351108; conditions: Gαi2 and GαoA; ref [43]; cited from earlier work
human MOP = biological target: T1, human MOP (Homo sapiens, UniProt P35372); experiment: [35S]GTPγS binding assay (G-protein activation) in CHO-hMOP cell membranes; format: biochemical; conditions: for %Stim: efficacy normalized to the maximum stimulation caused by EM-1
T1 construct: originator Prof L. Toll, SRI International; host or cells: CHO (CHO-hMOP), membranes
T1 sequence (P35372 whole entry): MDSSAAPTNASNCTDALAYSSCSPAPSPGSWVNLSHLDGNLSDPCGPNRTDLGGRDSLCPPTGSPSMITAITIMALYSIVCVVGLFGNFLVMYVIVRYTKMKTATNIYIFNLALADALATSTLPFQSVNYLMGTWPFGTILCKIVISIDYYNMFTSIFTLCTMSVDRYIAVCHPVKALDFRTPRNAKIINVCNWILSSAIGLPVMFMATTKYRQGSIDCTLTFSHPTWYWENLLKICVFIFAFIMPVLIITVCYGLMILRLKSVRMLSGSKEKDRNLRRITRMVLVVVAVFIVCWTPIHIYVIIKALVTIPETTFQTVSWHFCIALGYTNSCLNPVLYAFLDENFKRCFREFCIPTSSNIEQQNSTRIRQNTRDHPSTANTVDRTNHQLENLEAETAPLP
Procedure: Herein, for the first time the biased agonism of F-81 and C-33 is analyzed by [^35S]GTPγS binding assay (Table 1) and PathHunter enzyme complementation assay (Table 2). [^35S]GTPγS binding assay, which characterizes ligand-driven G protein activation, was performed in CHO cells stably expressing the human MOP [46, 47].
[^35S]GTPγS binding assay. CHO cells stably expressing the human MOP receptor (in brief, CHO-hMOP cells, provided by Prof G. Calo, University of Ferrara; originator was Prof L. Toll, SRI International, Menlo Park, CA, USA) were grown in Hams F12 containing streptomycin (100 μg/mL), fungizone 2.5 μg/mL), penicillin (100 IU/mL) and 10% fetal bovine serum (FBS). Stock medium containing G418 (200 μg/mL) was used to maintain CHO-hMOP expression. Experiments were performed according to the literature. Cell membranes (5–10 µg) were incubated at 30 °C with 0.05 nM [^35S]GTPγS (PekinElmer, 549 Albany St, Boston, MA 02118, US), 10 µM GDP and various concentrations of a tested peptide in the final volume of 1 mL, for 60 min. Non-specific binding was determined using 10 µM GTPγS, and the basal binding was determined in the absence of a tested peptide. Incubations were terminated by rapid filtration through the GF/B Whatman glass fiber strips and the bound radioactivity was measured in a liquid scintillation counter. Five independent experiments were carried out. The data were analyzed by a nonlinear least square regression analysis computer program Graph Pad PRISM 5.0 (GraphPad Software Inc., San Diego, CA, USA).

[2] = biological target: T2, CHO-K1 OPRM1 (μ-opioid receptor (MOP))/β-arrestin 2 (Homo sapiens, UniProt P35372); experiment: PathHunter enzyme complementation assay, β-arrestin 2 recruitment; format: cell-based; conditions: for EC50 / %Stim: CHO-K1 OPRM1 β-arrestin 2 cell line; for EC50: mean ± SEM, n = 5; for %Stim: normalized to the maximum stimulation caused by EM-1 (100%)
T2 construct: host or cells: CHO-K1 (CHO-K1 OPRM1 β-arrestin cell line)
T2 sequence (P35372 whole entry): as above
T2 sequence (P32121 whole entry partner): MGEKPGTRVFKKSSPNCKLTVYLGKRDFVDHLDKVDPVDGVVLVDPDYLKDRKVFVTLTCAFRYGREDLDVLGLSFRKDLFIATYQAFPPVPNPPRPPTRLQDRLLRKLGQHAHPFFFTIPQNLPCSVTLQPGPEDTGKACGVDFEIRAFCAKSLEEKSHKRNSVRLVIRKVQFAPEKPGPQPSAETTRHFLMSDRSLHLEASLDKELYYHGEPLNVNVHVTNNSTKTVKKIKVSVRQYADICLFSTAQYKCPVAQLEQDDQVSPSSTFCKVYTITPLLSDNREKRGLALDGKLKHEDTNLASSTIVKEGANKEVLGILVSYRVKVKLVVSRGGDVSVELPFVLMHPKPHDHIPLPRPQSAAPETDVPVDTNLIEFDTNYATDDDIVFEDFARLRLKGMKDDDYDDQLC
Procedure: Since in most studies reported in the introduction, β-arrestin 2 was used, for easy comparison we decided to characterize this isoform, despite being the minority as compared to β-arrestin 1 in most cells, including neurons. The use of β-arrestin 2 is supported by its similarity in opioid receptor binding with β-arrestin 1 [37, 50].
Measurement of β-arrestin 2 recruitment. β-arrestin 2 recruitment at MOP was measured using the DiscoveRxPathHunter® β-arrestin kit (DiscoveRx, Fremont, CA, USA) according to manufacturer’s recommendations and previously published procedure. CHO cells were engineered to co-express the ProLink™ (PK) tagged GPCR (GPCR-PK) and the enzyme acceptor (EA) tagged β-arrestin 2 (β-arrestin-EA) (CHO-K1 OPRM1 β-arrestin cell line). Activation of the GPCR-PK induces β-arrestin-EA recruitment, forcing complementation of the two β-galactosidase enzyme fragments (EA and PK). The resulting functional enzyme hydrolyzes substrate to generate a chemiluminescent signal which was measured by luminometry. Briefly, 20 μL of PathHunter cells as taken from the kit were seeded in each well and incubated overnight at 37 °C. […] Detection Reagent Working Solution (12 μL) was added and incubation was continued for 60 min at rt. Chemiluminescent signal was read using a Viewlux imaging plate reader (PerkinElmer, Cambridge, MA, USA).

DPP IV = system: DPP IV; parameters: method as in ref [44] (F-81), [45] (C-33); conditions: ref [44] (F-81), [45] (C-33); cited from earlier work
[3] = parameters: method as in ref [44] (F-81), [45] (C-33); conditions: ref [44] (F-81), [45] (C-33); cited from earlier work
MOP [4] = biological target: MOP; parameters: method as in ref [44] (F-81), [45] (C-33); conditions: [3H]DAMGO, human opioid receptor membranes; ref [44] (F-81), [45] (C-33); cited from earlier work
KOP = biological target: KOP; parameters: method as in ref [44] (F-81), [45] (C-33); conditions: [3H]U-69593, human opioid receptor membranes; ref [44] (F-81), [45] (C-33); cited from earlier work
human recombinant MOP = conditions: cited from earlier work; for MOP pEC50 (CL95%): calcium signaling via chimeric G proteins, ref [44] (EM-2, DPDPE, Dyn A, F-81); for MOP pEC50 (CL95%) / MOP α±SEM: [45] (C-33); for MOP α±SEM: maximal effect, calcium signaling, ref [44]
human recombinant DOP = system: human recombinant DOP; parameters: method as in ref [44], [45] (C-33); conditions: ref [44], [45] (C-33), cited from earlier work; for DOP pEC50 (CL95%): calcium signaling via chimeric G proteins; for DOP α±SEM: maximal effect, calcium signaling
human recombinant KOP = system: human recombinant KOP; parameters: method as in ref [44], [45] (C-33); conditions: ref [44], [45] (C-33), cited from earlier work; for KOP pEC50 (CL95%): calcium signaling via chimeric G proteins; for KOP α±SEM: maximal effect, calcium signaling
MOP/G-protein = conditions: BRET, [45] (C-33), cited from earlier work; for MOP/G-protein α±SEM: maximal effect, ref [44]; for MOP/G-protein pEC50 (CL95%): ref [44] (EM-2, F-81)
MOP/β-arrestin 2 = conditions: cited from earlier work; for MOP/β-arrestin 2 pEC50 (CL95%): ref [44] (EM-2, F-81)
DOP = conditions: read-out: Ki DOP; [3H]deltorphin-2, human opioid receptor membranes; ref [44] (F-81), [45] (C-33); cited from earlier work

Compound	EC50 (human MOP) [nM]	%Stim (human MOP; CHO-hMOP) [%]	EC50 [2] [nM]	%Stim [2]	Enzymatic stability Area [%] 120 min DPP IV (DPP IV) [%]	Enzymatic stability Area [%] 120 min Homogenate [3] [%]	Ki (MOP [4]) [nM]	Ki (KOP) [nM]	MOP pEC50 (CL95%) (human recombinant MOP)	MOP α±SEM (human recombinant MOP)	DOP pEC50 (CL95%) (human recombinant DOP)	KOP pEC50 (CL95%) (human recombinant KOP)	KOP α±SEM (human recombinant KOP)	MOP/G-protein α±SEM (MOP/G-protein)	MOP/G-protein pEC50 (CL95%) (MOP/G-protein)	MOP/β-arrestin 2 pEC50 (CL95%) (MOP/β-arrestin 2; BRET, [45] (C-33))	Ki (DOP) [nM]	DOP α±SEM (human recombinant DOP)	also measured
COc1ccsc1CNCC[C@]1(c2ccccn2)CCOC2(CCCC2)C1 [(S)-TRV130]																			G protein activation, less potent compared to its (R)-isomer (MOP [1]): 90 fold
Cc1cc(O)cc(C)c1C[C@H](N)C(=O)N[C@@H]1CCCCNC(=O)C[C@@H](C(N)=O)NC(=O)[C@H](Cc2ccccc2)NC1=O [C-33, Dmt-c[D-Lys-Phe-Asp]NH2] (H-[Dmt][dK]FD-NH2; lactam 2-4)	0.0794	88 ± 3	2.51	156% and 156 ± 3 %	91.1±4.21	89±2.27													
Cc1cc(O)cc(C)c1C[C@H](N)C(=O)N[C@@H]1CCCCNC(=O)C[C@@H](C(N)=O)NC(=O)[C@H](Cc2ccc(C(F)(F)F)cc2)NC(=O)[C@H](Cc2ccccc2)NC1=O [F-81, Dmt-c[D-Lys-Phe-p-CF3-Phe-Asp]NH2] (H-[Dmt][dK]F[Phe(4-CF3)]D-NH2; lactam 2-5)	0.112	68 ± 1	0.398	41% and 41 ± 15 %	92.1±3.27	90.7±3.14	2.4	31.1	8.19	0.8±0.05	inactive	8.22	0.63±0.04	0.82±0.04	8.28	inactive	> 1000		Class (human MOP; CHO-hMOP, [35S]GTPγS binding): high efficacy partial agonist; agonist behaviour, β-arrestin 2 recruitment (in words) ([2]; PathHunter, compared to EM-1): low efficacy partial agonist; higher potency than the reference EM-2 (human recombinant MOP; calcium mobilization assay, MOP, ref [44],[45]): 2 fold; receptor/β-arrestin interaction (in words) (MOP/β-arrestin 2; BRET, ref [44]): did not promote receptor/β-arrestin interaction
DPDPE									inactive		7.33	inactive						1.00	
Dyn A: reference agonist in calcium mobilization assay (KOP)									6.67	0.83±0.10	7.73		1.00					0.99±0.04	
Tyr-Pro-Phe-Phe-NH2 (YPFF-NH2) [EM-2, reference compound]					1.9±0.03	6.5±0.15	2.5 ± 0.05	> 1000	7.83	1.00	inactive	inactive		1.00	7.32	7.20	> 1000		MOP/β-arrestin 2 α±SEM (MOP/β-arrestin 2; BRET, maximal effect, ref [44], [45] (C-33)): 1.00; bias factor (CL95%) (MOP/β-arrestin 2; calculated by using EM-2 as a standard unbiased ligand, ref [44], [45] (C-33)): 0.00
